{
  "source": "patent US7439226B2",
  "about": "“Serine protease inhibitors” (The United States of America as represented by the …, priority 2003, dated 2008)",
  "key": {"elastase": {"test_system": "elastase", "details": "background statement; cited from earlier work"}, "matriptase": {"target": "matriptase (Homo sapiens, UniProt Q9Y5Y6)", "sequence (Q9Y5Y6 whole entry, species assumed)": "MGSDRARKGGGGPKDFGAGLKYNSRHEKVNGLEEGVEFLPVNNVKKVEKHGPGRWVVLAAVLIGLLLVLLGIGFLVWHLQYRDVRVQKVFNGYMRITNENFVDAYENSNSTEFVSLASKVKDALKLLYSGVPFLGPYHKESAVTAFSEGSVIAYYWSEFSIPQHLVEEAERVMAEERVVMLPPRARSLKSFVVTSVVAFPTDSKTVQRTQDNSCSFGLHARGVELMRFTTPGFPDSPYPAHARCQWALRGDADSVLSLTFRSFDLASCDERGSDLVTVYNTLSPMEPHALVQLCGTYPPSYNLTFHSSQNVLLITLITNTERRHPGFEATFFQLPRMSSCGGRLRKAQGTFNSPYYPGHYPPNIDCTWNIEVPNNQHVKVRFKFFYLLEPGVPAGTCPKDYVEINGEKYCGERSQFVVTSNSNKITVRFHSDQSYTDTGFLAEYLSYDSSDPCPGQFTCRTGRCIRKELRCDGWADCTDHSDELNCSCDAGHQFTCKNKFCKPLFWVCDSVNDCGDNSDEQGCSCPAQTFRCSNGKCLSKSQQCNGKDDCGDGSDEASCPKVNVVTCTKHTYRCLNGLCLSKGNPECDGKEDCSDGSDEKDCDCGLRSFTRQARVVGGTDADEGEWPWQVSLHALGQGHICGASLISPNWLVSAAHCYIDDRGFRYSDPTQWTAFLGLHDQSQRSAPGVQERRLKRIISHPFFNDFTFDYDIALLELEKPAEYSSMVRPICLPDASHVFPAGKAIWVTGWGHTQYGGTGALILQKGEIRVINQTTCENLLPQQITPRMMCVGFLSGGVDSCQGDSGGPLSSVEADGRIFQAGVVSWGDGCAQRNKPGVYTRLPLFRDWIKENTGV", "details": "background statement; cited from earlier work"}, "[1]": {"target": "T1, Urokinase-type plasminogen activator (uPA) (Homo sapiens, UniProt P00749)", "T1 construct": "from a partially purified uPA from human urine; from tissue; host or cells: human urine", "assay": "uPA inhibition, fluorescent substrate N-t-Boc-Leu-Gly-Arg-AMC, Ki by Dixon plots", "type": "biochemical", "details": "room temperature, pH 8.5", "excerpt": "(§1) 13, 2003, and which is incorporated herein by reference."}, "bovine thrombin": {"target": "T2, bovine thrombin (Bos taurus, UniProt P00735)", "T2 construct": "purchased Sigma (Sigma Chemical Co., St. Louis, Mo.)", "assay": "Thrombin inhibition, fluorescent substrate N-t-Boc Leu-Arg-Arg-AMC, Ki by Dixon plots", "type": "biochemical", "details": "read-out: Ki of SFTI-1 (nM), Thrombin; room temperature, pH 8.5", "excerpt": "as §1"}, "Factor Xa": {"target": "Factor Xa (Homo sapiens, UniProt P00742)", "sequence (P00742 235-488 limits assumed)": "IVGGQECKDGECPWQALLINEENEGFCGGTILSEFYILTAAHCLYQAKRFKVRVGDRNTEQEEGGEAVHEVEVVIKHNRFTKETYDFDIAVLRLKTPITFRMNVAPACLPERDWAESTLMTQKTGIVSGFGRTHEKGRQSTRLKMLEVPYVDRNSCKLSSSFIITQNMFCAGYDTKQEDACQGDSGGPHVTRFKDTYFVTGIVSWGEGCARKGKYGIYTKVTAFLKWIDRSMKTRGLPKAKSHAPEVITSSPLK", "sequence (P00742 41-179 partner limits assumed)": "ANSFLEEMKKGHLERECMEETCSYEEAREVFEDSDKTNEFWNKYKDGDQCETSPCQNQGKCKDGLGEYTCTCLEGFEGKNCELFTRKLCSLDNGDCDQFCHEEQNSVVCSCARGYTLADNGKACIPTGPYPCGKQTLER", "details": "Luckett et al. J Mol. Biol. 1999; cited from earlier work"}, "cathepsin G": {"target": "T3, cathepsin G (Homo sapiens, UniProt P08311)", "T3 sequence (P08311 21-244)": "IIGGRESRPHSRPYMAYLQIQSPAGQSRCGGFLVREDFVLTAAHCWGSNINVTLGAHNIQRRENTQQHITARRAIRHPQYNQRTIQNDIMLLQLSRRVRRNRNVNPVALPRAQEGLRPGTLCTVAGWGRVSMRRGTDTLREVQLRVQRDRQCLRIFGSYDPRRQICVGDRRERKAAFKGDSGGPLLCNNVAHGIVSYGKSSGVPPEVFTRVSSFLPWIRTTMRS", "details": "background statement; cited from earlier work"}, "thrombin": {"target": "thrombin (Homo sapiens, UniProt P00734)", "details": "background statement; cited from earlier work"}},
  "data": [
    {"compound": "CC[C@H](C)[C@@H]1NC(=O)[C@@H]2CCCN2C(=O)[C@@H]2CCCN2C(=O)[C@H]([C@@H](C)CC)NC(=O)[C@H](CO)NC(=O)[C@H](CCCCN)NC(=O)[C@H]([C@@H](C)O)NC(=O)[C@@H]2CSSC[C@H](NC1=O)C(=O)N[C@@H](Cc1ccccc1)C(=O)N1CCC[C@H]1C(=O)N[C@@H](CC(=O)O)C(=O)NCC(=O)N[C@@H](CCCNC(=N)N)C(=O)N2", "note": "[SFTI-1]", "values": [
      {"measurement": "inhibitory activity against elastase compared with matriptase", "setting": "elastase", "value": "three orders of magnitude lower"},
      {"measurement": "inhibitory constant (Ki) against matriptase", "setting": "matriptase", "value": "subnanomolar"},
      {"measurement": "Ki", "setting": "[1]", "value": 500, "unit": "µM"},
      {"measurement": "Ki", "setting": "bovine thrombin", "value": 5050, "unit": "nM"},
      {"measurement": "effect on the activity of Factor Xa", "setting": "Factor Xa", "value": "no detectable effect"},
      {"measurement": "inhibitory constant (Ki) against cathepsin G", "setting": "cathepsin G", "value": "subnanomolar"},
      {"measurement": "inhibitory activity against thrombin compared with matriptase", "setting": "thrombin", "value": "three orders of magnitude lower"}
    ]}
  ]
}
